The test system of assay [1] is cells bearing TEM-1 allele Y105N. The assay is described as follows: MIC assay on Mueller Hinton agar, TEM-1 allele Y105N. It is filed as cell-based, E. coli. The following applies: replicates 1-3. Here is the method:
(§1) Selected single base mutations were re-introduced into TEM-1 by site-directed PFunkel mutagenesis on the 20 μL volume scale. The MIC for ampicillin and piperacillin of the mutants was assessed with and without 6 μg/mL tazobactam by spotting 10^4 CFU on Mueller-Hinton agar plates containing 50 μg/mL Spec, 300 μM IPTG, and √2-fold increments of either ampicillin or piperacillin. Plates were incubated at 37° C. for 12 hrs.

Assay [2] concerns cells bearing wildtype TEM-1. The assay is described as follows: MIC assay on Mueller Hinton agar, cells bearing TEM-1 without mutation (allele 'none'). It is filed as cell-based, E. coli. Here is the method:
as §1

The mark [3] stands for this setting: +tazobactam 6 μg/mL, replicates 1-3.
Setting [4] is: −tazobactam, replicates 1-3, 10^4 CFU/spot, 37° C. for 12 hours.

With `CC1(C)S[C@@H]2[C@H](NC(=O)[C@H](N)c3ccccc3)C(=O)N2[C@H]1C(=O)O` [Ampicillin, ampicillin], the MIC ampicillin in assay [1] (+tazobactam 6 μg/mL) was 1448 µg/mL; in assay [1] (−tazobactam), 5792 µg/mL; in assay [2] (setting [3]), 22.6 µg/mL; in assay [2] (setting [4]), 8192 µg/mL.

`CCN1CCN(C(=O)N[C@@H](C(=O)N[C@@H]2C(=O)N3[C@@H]2SC(C)(C)[C@@H]3C(=O)O)c2ccccc2)C(=O)C1=O` [Piperacillin, piperacillin]: the “Piperacillin MIC” value in assay [2] (setting [3]) was 1.4 µg/mL; in assay [2] (setting [4]), 2896 µg/mL.
